Patent US20200360531A1, “ANTIBODY DRUG CONJUGATES (ADCS) WITH NAMPT INHIBITORS” (Bayer Aktiengesellschaft, priority 2018, published 2020)
Values joined by “and” are separate entries in the source; they are usually repeats but may differ in a detail not shown here. Identical values can stand only once. Like-named read-outs stand apart in the source and are kept apart here.

Key:
[1] = molecular target: T1, human NAMPT (Homo sapiens, UniProt P43490); experiment: NAMPT biochemical assay (hNAMPT IC50), cascade assay with NMNAT1 and NAD/NADH-Glo detection; conditions: Table 2; replicate values on separate lines
T1 construct: N-terminally His6-tagged recombinant full length human NAMPT; His6 (N); made in house; host or cells: E. coli
Text: NAMPT Biochemical Assay (hNAMPT IC50)
Nicotinamide phosphoribosyltransferase (NAMPT) inhibitory activity of compounds of the present invention was quantified employing a cascade assay as described in the following paragraphs. The assay couples the conversion of nicotinamide (NAM) to nicotinamide mononucleotide (NMN) by NAMPT with the conversion of NMN to […] adenine dinucleotide (NAD^+) by nicotinamide mononucleotide adenylyltransferase 1 (NMNAT1) and the subsequent quantification of the generated NAD^+ by a commercial detection kit (NAD/NADH-Glo™ Assay from Promega, #G9072).
N-terminally His6-tagged recombinant full length human NAMPT and N-terminally His6-tagged recombinant full length human NMNAT1, both expressed in E. coli and purified via Ni-NTA-affinity chromatography and consecutive size exclusion chromatography, were used as enzymes.
For the assay 50 nl of a 100 fold concentrated solution of the test compound in DMSO was pipetted into a white low volume 384 well microtiter plate (Greiner Bio-One, Frickenhausen, Germany), 2.5 μl of a solution of NAMPT in aqueous NMNAT1-containing assay buffer [50 mM Tris/HCl pH 7.5, 12 mM MgCl2, 0.6 mM adenosine-tri-phosphate (ATP), 1 nM NMNAT1, 0.02% (w/v) bovine serum albumin (Sigma-Aldrich #P7906), 0.001% (v/v) Tween-20 (Sigma-Aldrich #P7949)] were added and the mixture was incubated for 15 min at 22° C. to allow pre-binding of the test compounds to the enzyme before the start of the enzyme reaction. Then the reaction was started by the addition of 2.5 μl of a solution of NAM (300 nM=>final conc. in the 5 μl assay volume is 150 nM, Sigma-Aldrich #^47865) and 5-phosphorylribose-1-pyrophosphate pentasodium salt (PRPP, 1.2 μM=>final conc. in the 5 μl assay volume is 0.6 μM, Sigma-Aldrich P8296) in assay buffer and the resulting mixture was incubated for a reaction time of 20 min at 22° C. The concentration of NAMPT was adjusted depending of the activity of the enzyme lot and was chosen appropriate to have the assay in the linear range, typical final concentration in the 5 μl assay volume was 0.16 nM.
The resulting mixture was incubated 2 h at 22° C. to allow a steady-state of the detection system. Subsequently the generated luminescence was measured in a suitable luminescence reader, e.g. a Viewlux™ (Perkin-Elmer), and taken as a measure for the generated NAD^+.

[2] = test system: MDA-MB-453; experiment: Cell proliferation assay, Cell Titer Glo (CTG) method, MDA-MB-453; type: cell-based
Procedure: (§1) Cell Proliferation Assay for Nampt-ADCs and Nampt-SMOLs
(§2) Cell Titer Glo (CTG) Method
(§3) To this end, 75 μL per well CTG solution (Promega, catalog #G755B and G756B) was added to cells in sister plates, incubated for 10 min, and luminescence was measured on a VICTOR V instrument (Perkin Elmer). After incubation for either 72 or 96 hrs (Table 1) in the presence of test compounds, 100 μl per well CTG solution was added to all test wells, incubated for 10 min and luminescence was measured on a VICTOR V instrument. […] The DRC software is a Biobook Spreadsheet that was developed by Bayer AG and Bayer Business Services on the IDBS E-Workbook Suite platform (IDBS: ID Business Solutions Ltd., Guildford, UK).

[3] = test system: A549 C4.4a B4; experiment: Cell proliferation assay, Cell Titer Glo (CTG) method, A549 C4.4a B4; type: cell-based, human
Procedure: as §1, §2, §3

[4] = test system: THP-1; experiment: Cell proliferation assay, Cell Titer Glo (CTG) method, THP-1; type: cell-based, human; conditions: Table 2, 72 h
Procedure: as §1, §2, §3

[5] = test system: U251 MG; experiment: Cell proliferation assay, Cell Titer Glo (CTG) method, U251 MG; type: cell-based; conditions: Table 2
Procedure: as §1, §2, §3

[6] = test system: human breast and lung cancer cell line-derived in vivo models; conditions: in vitro and in vivo; cited from earlier work
[7] = test system: murine renal cell carcinoma model RENCA; conditions: cited from earlier work
[8] = Homo sapiens, MDA-MB-453, 72 h, Table 2, read-out: MDA-MB-453 72 h IC50
[9] = Homo sapiens, A549, 72 h, Table 2, read-out: A549 C4.4a B4 72 h IC50

T1 sequence (P43490 whole entry): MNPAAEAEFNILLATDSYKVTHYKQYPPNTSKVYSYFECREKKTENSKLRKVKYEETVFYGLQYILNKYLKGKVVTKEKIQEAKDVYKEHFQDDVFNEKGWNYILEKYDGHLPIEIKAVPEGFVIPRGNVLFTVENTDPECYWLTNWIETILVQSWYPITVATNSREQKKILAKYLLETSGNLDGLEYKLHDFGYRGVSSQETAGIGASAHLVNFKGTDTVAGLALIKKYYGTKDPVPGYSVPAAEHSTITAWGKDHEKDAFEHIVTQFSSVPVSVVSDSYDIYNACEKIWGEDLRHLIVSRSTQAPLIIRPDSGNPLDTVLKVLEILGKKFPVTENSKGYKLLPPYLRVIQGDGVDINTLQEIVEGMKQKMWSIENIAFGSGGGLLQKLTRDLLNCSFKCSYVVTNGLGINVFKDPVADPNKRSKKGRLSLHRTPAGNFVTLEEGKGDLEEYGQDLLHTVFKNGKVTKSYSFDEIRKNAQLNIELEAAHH

Molecule | IC50 [1] | IC50 [2, 8] [nM] | IC50 [3, 9] [nM] | IC50 ([4]; Homo sapiens, THP-1) [nM] | IC50 ([5]; Homo sapiens, U-251, 72 h) [nM] | IC50 ([5]; 72 h) [nM] | cytotoxic effects [6] | IC50 ([2]; Table 2, 72 h, read-out: MDA-MB-453 72 h IC50) [nM] | IC50 ([3]; Table 2, 72 h, read-out: A549 C4.4a B4 72 h IC50) [nM] | IC50 [4] [nM] | In vivo efficacy [7]
O=C(Nc1ccc(-c2cc(-c3ccc4cccnc4c3)c(=O)[nH]n2)cc1)N1Cc2ccncc2C1 [Example 24, N-{4-[6-oxo-5-(quinolin-7-yl)-1,6-dihydropyridazin-3-yl]phenyl}-1,3-dihydro-2H-pyrrolo[3,4-c]pyridine-2-carboxamide] | 0.241 nM and 0.295 nM | < 0.03 | 4.92 | 0.00996 | < 0.03 |  |  |  |  |  | 
NCCCCN1N=C(c2ccc(NC(=O)N3Cc4ccncc4C3)cc2)C[C@](c2cccc3ncccc23)(C(F)(F)F)C1=O [Example 13, N-{4-[(5R)-1-(4-aminobutyl)-6-oxo-5-(quinolin-5-yl)-5-(trifluoromethyl)-1,4,5,6-tetrahydropyridazin-3-yl]phenyl}-1,3-dihydro-2H-pyrrolo[3,4-c]pyridine-2-carboxamide] | 2.77 nM and 3.2 nM | 0.436 | 227 | 0.447 | 43.7 |  |  |  |  |  | 
Cc1nnc(-c2cc(-c3ccc(NC(=O)N4Cc5ccncc5C4)cc3)n[nH]c2=O)o1 [Example 9, N-{4-[5-(5-methyl-1,3,4-oxadiazol-2-yl)-6-oxo-1,6-dihydropyridazin-3-yl]phenyl}-1,3-dihydro-2H-pyrrolo[3,4-c]pyridine-2-carboxamide] | 0.457 nM and 0.717 nM | 0.0357 | 97.2 | 1.21 | 4.34 |  |  |  |  |  | 
O=C(Nc1ccc(-c2cc(-c3cccc4[nH]ncc34)c(=O)[nH]n2)cc1)N1Cc2ccncc2C1 [Example 18, N-{4-[5-(1H-indazol-4-yl)-6-oxo-1,6-dihydropyridazin-3-yl]phenyl}-1,3-dihydro-2H-pyrrolo[3,4-c]pyridine-2-carboxamide] | 0.213 nM and 0.226 nM | < 0.03 | 58.5 | ≤ 0.003 | < 0.03 | 0.0428 |  |  |  |  | 
O=C1NN=C(c2ccc(NC(=O)N3Cc4ccncc4C3)cc2)CC1c1ccc2[nH]ccc2c1 (centres unmarked) [Example 21, N-{4-[5-(1H-Indol-5-yl)-6-oxo-1,4,5,6-tetrahydropyridazin-3-yl]phenyl}-1,3-dihydro-2H-pyrrolo[3,4-c]pyridine-2-carboxamide] | 0.393 nM and 0.47 nM | < 0.03 | 40.5 | < 0.003 | < 0.03 |  |  |  |  |  | 
N#CN=C(NCCCCCCOc1ccc(Cl)cc1)Nc1ccncc1 [CHS-828, N-[6-(4-chlorophenoxy)hexyl]-N′-cyano-N″-4-pyridinyl-guanidine] |  |  |  |  |  |  | highly cytotoxic effects |  |  |  | 
Cc1nnc(C2CC(c3ccc(NC(=O)N4Cc5ccncc5C4)cc3)=NNC2=O)o1 (centres unmarked) [Example 7, N-{4-[5-(5-Methyl-1,3,4-oxadiazol-2-yl)-6-oxo-1,4,5,6-tetrahydropyridazin-3-yl]phenyl}-1,3-dihydro-2H-pyrrolo[3,4-c]pyridine-2-carboxamide] | 1.02 nM and 1.2 nM | 0.299 | > 300 | 0.995 | 8.95 |  |  |  |  |  | 
2 or 3-{[(2R)-2-Amino-2-carboxyethyl]sulfanyl}-4-{[2-({6-[3-{4-[(1,3-dihydro-2H-pyrrolo[3,4-c]pyridine-2-carbonyl)amino]phenyl}-5-(5-methyl-1,3,4-oxadiazol-2-yl)-6-oxopyridazin-1(6H)-yl]hexyl}amino)-2-oxoethyl]amino}-4-oxobutanoic Acid [Example 34M] | 1.17 nM and 1.18 nM |  |  |  |  | > 300 |  | 91.2 | > 300 | > 300 | 
O=C(Nc1ccc(-c2cc(-c3ccc4[nH]ncc4c3)c(=O)[nH]n2)cc1)N1Cc2ccncc2C1 [Example 16, N-{4-[5-(1H-indazol-5-yl)-6-oxo-1,6-dihydropyridazin-3-yl]phenyl}-1,3-dihydro-2H-pyrrolo[3,4-c]pyridine-2-carboxamide-hydrogen chloride] | 0.323 nM and 0.326 nM | < 0.03 | 23.2 | < 0.003 | 0.0411 | 0.057 |  |  |  |  | 
O=C1NN=C(c2ccc(NC(=O)N3Cc4ccncc4C3)cc2)CC1c1ccc2[nH]ncc2c1 (centres unmarked) [Example 17, N-{4-[5-(1H-indazol-5-yl)-6-oxo-1,4,5,6-tetrahydropyridazin-3-yl]phenyl}-1,3-dihydro-2H-pyrrolo[3,4-c]pyridine-2-carboxamide] | 0.218 nM and 0.346 nM | < 0.03 | 12.4 | 0.0385 | 0.642 |  |  |  |  |  | 
Cc1nnc(-c2cc(-c3ccc(NC(=O)N4Cc5ccncc5C4)cc3)nn(CCCCCCN)c2=O)o1 [Example 10, N-{4-[1-(6-Aminohexyl)-5-(5-methyl-1,3,4-oxadiazol-2-yl)-6-oxo-1,6-dihydropyridazin-3-yl]phenyl}-1,3-dihydro-2H-pyrrolo[3,4-c]pyridine-2-carboxamide] | 0.358 nM and 0.389 nM | 0.0943 | 267 | 0.00471 | 8.87 |  |  |  |  |  | 
O=C(/C=C/c1cccnc1)NCCCCC1CCN(C(=O)c2ccccc2)CC1 [daporinad, (E)-N-[4-(I-benzoylpiperidin-4-yl)butyl]-3-(pyridine-3-yl)-acrylamide] |  |  |  |  |  |  |  |  |  |  | In vivo efficacy of daporinad was shown
Cc1nnc(-c2cc(-c3ccc(NC(=O)N4Cc5ccncc5C4)cc3)nn(CCCCN)c2=O)o1 [Example 8, N-{4-[1-(4-Aminobutyl)-5-(5-methyl-1,3,4-oxadiazol-2-yl)-6-oxo-1,6-dihydropyridazin-3-yl]phenyl}-1,3-dihydro-2H-pyrrolo[3,4-c]pyridine-2-carboxamide] | 1.04 nM and 1.32 nM | 2.66 | 93.5 | 0.979 | 28.1 |  |  |  |  |  | 
NCCCCCCn1nc(-c2ccc(NC(=O)N3Cc4ccncc4C3)cc2)cc(-c2cccc3ncccc23)c1=O [Example 6, N-{4-[1-(6-Aminohexyl)-6-oxo-5-(quinolin-5-yl)-1,6-dihydropyridazin-3-yl]phenyl}-1,3-dihydro-2H-pyrrolo[3,4-c]pyridine-2-carboxamide] | 0.267 nM and 0.288 nM | < 0.03 | 11 | < 0.003 | < 0.03 |  |  |  |  |  | 
O=C(Nc1ccc(-c2cc(-c3ccc4[nH]ccc4c3)c(=O)[nH]n2)cc1)N1Cc2ccncc2C1 [Example 20, N-{4-[5-(1H-indol-5-yl)-6-oxo-1,6-dihydropyridazin-3-yl]phenyl}-1,3-dihydro-2H-pyrrolo[3,4-c]pyridine-2-carboxamide] | 0.156 nM and 0.229 nM | < 0.03 | 6.39 | < 0.003 | < 0.03 |  |  |  |  |  | 
NCCCCn1nc(-c2ccc(NC(=O)N3Cc4ccncc4C3)cc2)cc(-c2ccc3cccnc3c2)c1=O [Example 25, N-{4-[1-(4-Aminobutyl)-6-oxo-5-(quinolin-7-yl)-1,6-dihydropyridazin-3-yl]phenyl}-1,3-dihydro-2H-pyrrolo[3,4-c]pyridine-2-carboxamide] | 0.803 nM and 1.15 nM | < 0.03 | 57.1 | 0.0227 | 0.428 |  |  |  |  |  | 
